The source of these data is publication PMC8424217 (The Journal of Biological Chemistry, 2021).

“Also recorded” adds a separate entry of the source. Peptide text beside a SMILES is read from it. * marks the point of attachment. Palmitoyl = CCCCCCCCCCCCCCCC(=O)*

Common to all, as to assay type: cell-based
Test [1] concerns the target T1, hUT (Homo sapiens, UniProt Q9UKP6).
T1 sequence (Q9UKP6 1-389): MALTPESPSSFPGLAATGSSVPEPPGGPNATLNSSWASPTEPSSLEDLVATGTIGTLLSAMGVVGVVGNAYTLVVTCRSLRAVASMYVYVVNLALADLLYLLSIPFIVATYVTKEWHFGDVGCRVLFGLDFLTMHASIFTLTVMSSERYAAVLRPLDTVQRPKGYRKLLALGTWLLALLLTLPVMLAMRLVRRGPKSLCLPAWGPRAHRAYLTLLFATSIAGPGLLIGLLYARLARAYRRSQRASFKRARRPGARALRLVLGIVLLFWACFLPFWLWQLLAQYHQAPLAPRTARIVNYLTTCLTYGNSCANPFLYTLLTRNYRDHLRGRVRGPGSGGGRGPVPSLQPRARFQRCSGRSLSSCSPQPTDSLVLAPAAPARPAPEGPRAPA
Description: β-arrestin 2 conformational change, BRET biosensor, HEK 293-hUT cells. Particulars: 15 min at RT. Set-up: expressed in transfected cells. The method, then:
Figure 6 Signaling signature of hUT-pepducins following hUT receptor activation. […] Each curve represents mean ± SEM of at least three independent concentration-response experiments performed in triplicate.
(§1) HEK 293-hUT cells were grown in DMEM culture media supplemented with 10% foetal bovine serum, HEPES, sodium pyruvate, and G418 (200 μg mL^−1). Passages were performed when cells reached 80% of confluency. Cells were initially plated in 96-well plates at a density of 10,000 cells/well. The following day, the medium is replaced with DMEM culture media supplemented with 2.5% foetal bovine serum (FBS), and 12 h later, cells were transiently transfected with 25 ng/well of a Gq-polycistronic, 25 ng/well of a G12-polycistronic BRET sensor, 25 ng/well of a G13-polycistronic BRET sensor, 2.5 ng/well pIRESB RLucII-ERK-NLS-GFP BRET sensor, 2.5 ng β-arrestin 1-polycistronic BRET sensor, or 2.5 ng β-arrestin 2-polycistronic BRET sensor using Lipofectamine2000 at a ratio of 3:1 (Lipofectamine/plasmid DNA) in serum-free Opti-MEM ([44], [81]). Sixteen hours posttransfection, medium was replaced with DMEM supplemented with 10% FBS, HEPES, sodium pyruvate and G418 (200 μg mL^−1) and cell growth was resumed for another 16 h. Cells were washed with 150 μl PBS solution supplemented with 0.1% of glucose and then incubated with 80 μl of this solution for 2 h. Then, to evaluate Gq and G12 activation, 10 μl of a 1/20 dilution (diluted before use) of coelenterazine 400A (stock at 1 mM in ethanol) in Kreb's buffer and 10 μl of the 10× appropriate concentration of peptide were added, and the luminescence was evaluated with an Infinite M1000 PRO. […] Readings were performed after 5 min using an Infinite M1000 PRO. Filters were set at 410 nm and 515 nm for detecting the Renilla luciferase II (RlucII, donor) and green fluorescent protein 10 (GFP10, acceptor) light emission, respectively. BRET ratio was determined by calculating the ratio of the light emitted by GFP10 over the light emitted by the RlucII.
(In BRET a luciferase serves as donor, and the signal depends on an acceptor being close.)

Test [2] addresses T1, hUT. Description: ERK1/2 phosphorylation, BRET-based biosensor, HEK 293-hUT cells. Particulars: concentration-response. Set-up: expressed in transfected cells. The method, then:
as §1, with “Sixteen hours posttransfection, medium was replaced with DMEM supplemented with 10% FBS, HEPES, sodium pyruvate and G418 (200 μg mL^−1) and cell growth was resumed for another 16 h. Cells were washed with 150 μl PBS solution supplemented with 0.1% of glucose and then incubated with 80 μl of this solution for 2 h.” left out, “Filters were set at 410 nm and 515 nm for detecting the Renilla luciferase II (RlucII, donor) and green fluorescent protein 10 (GFP10, acceptor) light emission, respectively.” left out, “RlucII. […]” for “RlucII.”

Test [3] concerns rat neonatal cardiac fibroblasts. The test can be described thus: Rat cardiac neonatal fibroblast proliferation, high content imaging. Particulars: 10^−6 M, 24 h, three independent experiments in triplicate. An excerpt:
(§2) Each bar corresponds to the mean ± SEM obtained from three independent experiments conducted in triplicate.
Neonatal cardiac rat fibroblasts, endogenously expressing UT ([82]), were obtained from 1–3-day-old Sprague-Dawley pups as previously reported ([83]). Briefly, hearts obtained from neonatal rats were enzyme-digested and after centrifugation, cells were preplated to separate cardiomyocytes from fibroblasts. As reported, the adherent nonmyocyte fractions correspond predominantly to fibroblasts while the supernatants largely contain the cardiomyocytes. After several washes, attached fibroblasts were trypsinized and then cultured at 37 °C in 96-well plate (6000 cells per well) in low glucose-DMEM supplemented with 7% FBS, 100 units/ml of penicillin, and 100 μg/ml of streptomycin. After 48 h, cells were washed twice with low glucose-DMEM, and starved for 12 h in this medium. […] Cells are incubated with primary anti-smooth muscle α-actin antibody (1/500) in 10% horse serum/PBS overnight at 4 °C and later with secondary anti-rabbit Alexa Fluor 488 (1/1000) for 1 h at RT. Cell staining was performed using cell mask (1 μg mL^−1) in PBS for 30 min at room temperature and with Hoechst dye in PBS (1 μg/ml) for 10 min. Analysis was performed on an Opera Phoenix High Content Imaging System with a 20× water objective.

For test [4], the system named is HEK 293 cells. The test can be described thus: Cell proliferation, MTT assay, HEK 293 cells without receptor. Particulars: 10^−6 M.
Source text: as §2
Background: Tetrazolium dyes change colour on reduction, which living cells bring about.

Consider `CCCCCCCCCCCCCCCC(=O)N[C@@H](CCCNC(=N)N)C(=O)N1CCC[C@H]1C(=O)N[C@@H](CC(C)C)C(=O)N[C@@H](CC(=O)O)C(=O)N[C@H](C(=O)N[C@H](C(=O)N[C@@H](CCC(N)=O)C(=O)N[C@@H](CCCNC(=N)N)C(=O)N1CCC[C@H]1C(=O)N[C@@H](CCCCN)C(=O)NCC(=O)N[C@@H](Cc1ccc(O)cc1)C(N)=O)C(C)C)[C@@H](C)O` [hUT-Pep2] (Palmitoyl-RPLDTVQRPKGY-NH2), for which the Emax at 1 µM in test [1] (at 10^−6 M, percentage of the activation induced by hUII (10^−6 M), read-out: β-arrestin 2, maximum efficacy at 10^−6 M) is around 15%. Besides, the “ERK1/2 phosphorylation (BRET) versus hUII” value in test [2] was “lower potency and efficacy than hUII; also recorded: partial agonist”. For the same molecule, the “rat neonatal cardiac fibroblast proliferation” value in test [3] is “proliferative action in rat neonatal cardiac fibroblasts similar to what was observed with hUII”.

Take `CC(C)[C@H](NC(=O)[C@@H]1CSSC[C@H](NC(=O)[C@H](CC(=O)O)NC(=O)[C@@H]2CCCN2C(=O)[C@@H](NC(=O)[C@@H](N)CCC(=O)O)[C@@H](C)O)C(=O)N[C@@H](Cc2ccccc2)C(=O)N[C@@H](Cc2c[nH]c3ccccc23)C(=O)N[C@@H](CCCCN)C(=O)N[C@@H](Cc2ccc(O)cc2)C(=O)N1)C(=O)O` [hUII, urotensin II, reference compound]: the “rat neonatal cardiac fibroblast proliferation” value in test [3] is “proliferative action in rat neonatal cardiac fibroblasts similar to what was observed with hUII”. The “HEK 293 cell proliferation in absence of receptor” value in test [4] was “completely abrogated”.

`CCCCCCCCCCCCCCCC(=O)N[C@@H](Cc1c[nH]c2ccccc12)C(=O)N[C@@H](CC(C)C)C(=O)N[C@@H](CO)C(=O)N[C@@H](CCC(N)=O)C(=O)N[C@@H](CCCNC(=N)N)C(=O)N[C@@H](C)C(=O)N[C@@H](CO)C(=O)N[C@@H](Cc1ccccc1)C(=O)N[C@@H](CCCCN)C(=O)N[C@@H](CCCNC(=N)N)C(=O)N[C@@H](C)C(=O)N[C@@H](CCCNC(=N)N)C(=O)N[C@@H](CCCNC(=N)N)C(N)=O` [[Trp^1, Leu^2]hUT-Pep3] (Palmitoyl-WLSQRASFKRARR-NH2): the EC50 in test [1] (mean ± SEM, n = 3–5, read-out: β-arrestin 2 pEC50 (converted)) was 18.2 nM. Besides, the Emax in test [1] (percentage of the activation induced by hUII (10^−6 M), mean ± SEM, n = 3–5) stood at 19 ± 3%. For the same molecule, the “ERK1/2 phosphorylation (BRET) versus hUII” value in test [2] was “lower potency and efficacy than hUII”. The “rat neonatal cardiac fibroblast proliferation” value in test [3] is given as “proliferative action in rat neonatal cardiac fibroblasts similar to what was observed with hUII”. In test [4], the “HEK 293 cell proliferation in absence of receptor” value was “completely abrogated”.
